Measurements taken from patent US20160124002A1, “METHOD FOR DETECTING HYPOXIA OR DIAGNOSING HYPOXIA-RELATED DISEASES” (SEOUL NATIONAL UNIVERSITY R&DB FOUNDATION, priority 2013, published 2016).

System: THP-1 cell line
Experiment: Metabolites in culture medium of THP-1 cells under low oxygen with HIF-1 inhibition (LC/Q-TOF MS)
Format: cell-based, human
Conditions: THP-1 culture medium, low oxygen (1% O2)
Experimental: A THP-1 cell line, a human monocyte-derived cell line was cultured in the conditions of regular oxygen (21% oxygen), low oxygen (1% oxygen), and regular oxygen after low oxygen (reoxygenation), and then, the metabolites included in the culture media were identified and quantified using a LC/Q-TOF MS analysis as follows.
The human-derived monocyte cells (THP-1) (Korean Cell Line Bank, KCLB No. 40202) at 5×10^5 cells/4 mL medium were cultured in DMEM (Dulbecco's modified Eagle's medium) including 10% FBS (fetal bovine serum) under the condition of regular oxygen (21% O2, 5% CO2) at 37° C. for 24 hours, the condition of low oxygen (1% O2, 5% CO2) at 37° C. for 24 hours, or the condition of regular oxygen for 16 hours after low oxygen for 8 hours (reoxygenation) at 37° C.
After that, the media without the cells were isolated to obtain the samples to be analyzed. The media were subjected to a centrifugation at 3000 rpm and 4° C. to obtain supernatants only. The supernatants were then aliquoted and stored in a −70° C. cryogenic deep-freezer, and were thawed immediately before use.
In order to decrease the expression of a hypoxia-inducible factor-1 (HIF-1), a major regulator in a low oxygen environment, two types of si-HIF-1alpha (#1, 5′-CAAAGUUAAAGCAUCAGG-3′; #2, 5′-UGUACUGUCCUGUGGUGA-3′) were prepared, and then used for transfection into the cells using Lipofectamine RNA iMAX reagents (Life Technologies, USA) following the manufacturer's instruction. In addition, 2-methoxyestradiol (2ME2) and 17-N-Allylamino-17-demethoxygeldanamycin (17-AAG) used (Selleck chemicals) as the inhibitors of HIF-1 were used, and YC-1 was purchased from A.G. Scientific. The cells were treated also with 2ME2 and 17-AAG at the concentrations of 100 μM during the exposure of a low oxygen condition.
H2O (400 μl) at 4° C. and medium (100 μl) were put into a 1.5 ml micro tube so as to be diluted. After that, the sample was mixed well using a vortex, and then was filtered/centrifuged at 4° C. and 14,000 g for 20 minutes to obtain the supernatant thereof. The supernatant was collected in assay vials. In addition, for a QC (quality control) assay, the diluted samples of 50 μl from all the samples were mixed (pooling).
The samples that were prepared as described above were isolated by the system equipped with a reverse column, Zorbax SB-C18, 50×2.1 mm, 1.8 μm (Agilent Technologies, USA) in Binary Agilent 1200 series HPLC (Agilent Technologies). At this time, the assay sample in the amount of 5 μl was injected so as to pass through the column that was heated at 40° C. The metabolite sample was subjected to a gradient elution with 98% solvent A (2 mM ammonium formate and 0.1% formic acid in H2O) and 2% solvent B (0.1% formic acid in methanol) at the rate of 400 μl/min for 21 minutes. In order to avoid a cross-contamination, a blank run was performed between the sample runs.
ESI algorithm was used by coupling an Agilent 6530 quadrupole time-of-flight (Q-TOF) mass spectrometer (Agilent Technologies) with HPLC. Four centroid data per one second for one spectrum from 100 to 1100 m/z were obtained, and the m/z for all the spectra were calibrated in real time using the reference value externally supplied.
The metabolites were first identified from the mass spectra in the HMDB (http://www.hmdb.ca/) and METLIN (http://metlin.scripps.edu/) database using a software (Agilent MassHunter Qualitative Analysis (version B.05.00), Agilent Mass Profiler Professional (version B.02.02)). After that, the cleavage pattern by the LC/MS/MS assay of the corresponding metabolite was subjected to an additional confirmation work as compared to a practical standard material (Cayman, Ann Arbor, Mich., USA).
The relative concentration of the corresponding metabolites was calculated using the chromatograph area of the respective metabolite in the culture solution obtained from the corresponding cells. […]

[1] = treated with HIF-1 inhibitor (2ME2 and 17-AAG at 100 μM), FIG. 4
[2] = HIF-1 expression inhibited by si-RNA, FIG. 3

Row | Compound | 5-HETE that was increased under the low oxygen condition (H) [1] | 5-oxoETE that was increased under the low oxygen condition (H) [1] | 5-HETE that was increased under the low oxygen condition (H) [2] | 5-oxoETE that was increased under the low oxygen condition (H) [2]
1 | COc1cc2c(cc1O)CC[C@@H]1[C@@H]2CC[C@]2(C)[C@@H](O)CC[C@@H]12 [2ME2, 2-methoxyestradiol] | decreased | decreased |  | 
2 | C=CCNC1=C2C[C@@H](C)C[C@H](OC)[C@H](O)[C@@H](C)/C=C(\C)[C@H](OC(N)=O)[C@@H](OC)/C=C\C=C(/C)C(=O)NC(=CC1=O)C2=O [17-AAG, 17-N-Allylamino-17-demethoxygeldanamycin] | decreased | decreased |  | 
3 | OCc1ccc(-c2nn(Cc3ccccc3)c3ccccc23)o1 [YC-1] | decreased | decreased |  | 
4 | si-HIF-1a#1: si-RNA against HIF-1alpha, 5′-CAAAGUUAAAGCAUCAGG-3′ (chemistry not given here) |  |  | decreased | decreased
5 | si-HIF-1a#2: si-RNA against HIF-1alpha, 5′-UGUACUGUCCUGUGGUGA-3′ (chemistry not given here) |  |  | decreased | decreased
